These results are taken from patent US20130150363A1, “Method of Treating Cancer Using a cMET and AXL Inhibitor and an ErbB Inhibitor” (GlaxoSmithKline, priority 2008, published 2013).

In experiment [1] the test system is NCI-H441 lung carcinoma cells. Nature of the experiment: Cell growth inhibition (CellTiter-Glo), NCI-H441. The experiment is classed as cell-based. As to conditions: Homo sapiens, NCI-H441, 72 h, 3 days. In general terms: Cellular ATP, detected with luciferase, serves as a proxy for viable cell number.
A further experiment concerns lung_H1975 tumor cells. Nature of the experiment: Cell growth inhibition (CellTiter-Glo), H1975. The class given is cell-based. Conditions: Homo sapiens, NCI-H1975, 72 h, 3 days.
Experiment [2] relates to A431 epidermal carcinoma cells. In words: Cell growth inhibition (CellTiter-Glo), A431. The class given is cell-based. Conditions: Homo sapiens, A-431, 72 h, 3 days. From the text: (§1) Esophageal carcinoma cell line OE33 was purchased from ECACC European Collection of Cell Cultures (UK). Breast cancer cell line JIMT-1 and gastric carcinoma cell line MKN-45 were purchased from Deutsche Sammlung von Mikroorganismen and Zellkulturen GmbH (Germany); KPL-4, a human breast cancer cell line was kindly provided by Prof. J Kurebayashi (Kawasaki Medical School, Kurashiki, Japan). […] The LICR-LON-HN5 head and neck carcinoma cell line (HN5) was a gift from the Institute of Cancer Research, Surrey, U.K. HN5C12 was developed by single-cell cloning of HN5 followed by exposure to increasing concentrations of lapatinib. […] Cell growth inhibition was determined via CellTiter-Glo cell viability assays. […] BT474-J4 and HN5C12 were washed with PBS and plated in their culture media without lapatinib. […] ATP levels were determined by adding Cell Titer Glo0 (Promega), incubating for 20 minutes then the luminescent signal was read on the SpectraMax M5 plate with a 0.5 second integration time. Cell growth was calculated relative to vehicle (DMSO) treated control wells. […] y=([…]) where A is the minimum response (ymin), B is the maximum response (ymax), c is the inflection point of the curve (EC50), d is the Hill coefficient, and x is the log10 compound concentration (moles/L). CI values were calculated with the interpolated IC50 values and the mutually non-exclusive equation derived by Chou and […](a)+Db/IC50(b)+(Da×Db)/(IC50(a)×IC50(b)) where IC50(a) is the IC50 of the inhibitor A; IC50(b) is the IC50 for the inhibitor B; […] Excess Over Highest Single Agent (EOHSA) is defined as a statistically significant improvement in the combination compared to the component monotherapies. […] See Borisy et al. (2003) or Hung et al. (1993) for examples and discussion. Analysis was conducted using two-factor analysis of variance with interaction (model terms were dose of drug A, dose of drug B, and interaction between doses of drug A and B), followed by linear contrasts between each combination group and corresponding monotherapies. Analysis was conducted using SAS (version 9, provided by SAS Institute, Cary, N.C.). EOHSA at each dose was calculated as the minimum difference in average % inhibition between the combination and each monotherapy, from the appropriate ANOVA contrast. Since there are many comparisons for the % inhibition endpoint, p-value adjustment for multiple comparisons was performed. Hommel's procedure was implemented in order to improve the power while retaining […] Error Rate (FWE) control by using a sequentially rejective method. The p-values for both synergy and antagonism were calculated using this adjustment.

Experiment [3] has as its system Detroit 562 head and neck squamous cell carcinoma cells. Nature of the experiment: Cell growth inhibition (CellTiter-Glo), Detroit 562. The experiment is classed as cell-based. As to conditions: Homo sapiens, Detroit 562, 72 h, 3 days.
Text: as §1

Experiment [4] relates to HT29 colon carcinoma cells. In words: Cell growth inhibition (CellTiter-Glo), HT29. The experiment is classed as cell-based. Conditions: Homo sapiens, HT-29, 72 h, 3 days. From the text:
(§2) Esophageal carcinoma cell line OE33 was purchased from ECACC European Collection of Cell Cultures (UK). Breast cancer cell line JIMT-1 and gastric carcinoma cell line MKN-45 were purchased from Deutsche Sammlung von Mikroorganismen and Zellkulturen GmbH (Germany); KPL-4, a human breast cancer cell line was kindly provided by Prof. J Kurebayashi (Kawasaki Medical School, Kurashiki, Japan). […] The LICR-LON-HN5 head and neck carcinoma cell line (HN5) was a gift from the Institute of Cancer Research, Surrey, U.K. HN5C12 was developed by single-cell cloning of HN5 followed by exposure to increasing concentrations of lapatinib. […] Cell growth inhibition was determined via CellTiter-Glo cell viability assays. […] ATP levels were determined by adding Cell Titer Glo0 (Promega), incubating for 20 minutes then the luminescent signal was read on the SpectraMax M5 plate with a 0.5 second integration time. Cell growth was calculated relative to vehicle (DMSO) treated control wells. […] CI values were calculated with the interpolated IC50 values and the mutually non-exclusive equation derived by Chou and […](a)+Db/IC50(b)+(Da×Db)/(IC50(a)×IC50(b)) where IC50(a) is the IC50 of the inhibitor A; IC50(b) is the IC50 for the inhibitor B; […] […] EOHSA at each dose was calculated as the minimum difference in average % inhibition between the combination and each monotherapy, from the appropriate ANOVA contrast. […]

The subject of experiment [5] is SNU-16 gastric carcinoma cells. Nature of the experiment: Cell growth inhibition (CellTiter-Glo), SNU-16. The experiment is classed as cell-based. Conditions: Homo sapiens, SNU-16, 72 h, 3 days.
Text: as §2

Experiment [6] has as its system BT474-J4 lapatinib resistant breast carcinoma cells. Nature of the experiment: Cell growth inhibition (CellTiter-Glo), BT474-J4. The class given is cell-based. As to conditions: Homo sapiens; for IC50: 72 h, 3 days. From the text:
Esophageal carcinoma cell line OE33 was purchased from ECACC European Collection of Cell Cultures (UK). Breast cancer cell line JIMT-1 and gastric carcinoma cell line MKN-45 were purchased from Deutsche Sammlung von Mikroorganismen and Zellkulturen GmbH (Germany); KPL-4, a human breast cancer cell line was kindly provided by Prof. J Kurebayashi (Kawasaki Medical School, Kurashiki, Japan). […] The LICR-LON-HN5 head and neck carcinoma cell line (HN5) was a gift from the Institute of Cancer Research, Surrey, U.K. HN5C12 was developed by single-cell cloning of HN5 followed by exposure to increasing concentrations of lapatinib. […] Cell growth inhibition was determined via CellTiter-Glo cell viability assays. […] BT474-J4 and HN5C12 were washed with PBS and plated in their culture media without lapatinib. […] ATP levels were determined by adding Cell Titer Glo0 (Promega), incubating for 20 minutes then the luminescent signal was read on the SpectraMax M5 plate with a 0.5 second integration time. Cell growth was calculated relative to vehicle (DMSO) treated control wells. […] Excess Over Highest Single Agent (EOHSA) is defined as a statistically significant improvement in the combination compared to the component monotherapies. […] Analysis was conducted using two-factor analysis of variance with interaction (model terms were dose of drug A, dose of drug B, and interaction between doses of drug A and B), followed by linear contrasts between each combination group and corresponding monotherapies. Analysis was conducted using SAS (version 9, provided by SAS Institute, Cary, N.C.). EOHSA at each dose was calculated as the minimum difference in average % inhibition between the combination and each monotherapy, from the appropriate ANOVA contrast. Since there are many comparisons for the % inhibition endpoint, p-value adjustment for multiple comparisons was performed. Hommel's procedure was implemented in order to improve the power while retaining […] […] The p-values for both synergy and antagonism were calculated using this adjustment.

The test system of experiment [7] is phosphorylation of HER2, AXL, AKT, ERK and cyclin D1 in BT474-J4 cells. In words: Western blot analysis, BT474-J4. Conditions: BT474-J4, 1 μM each, 4 h.
Protocol: Cells were plated at 250,000 to 500,000 per well in six-well plates (Falcon multiwell, Becton Dickinson, Franklin Lakes, N.J.). The following day, cells were treated with compounds in the growth medium containing 10% FBS. After treatment, cells were washed with cold PBS and lysed in the culture dishes using cell lysis buffer [40 mmol/L Tris-HCl (pH 7.4), 10% glycerol, 50 mmol/L beta-glycerophosphate, 5 mmol/L EGTA, 2 mmol/L EDTA, 0.35 mmol/L vanadate, 10 mmol/L NaF, and 0.3% Triton X-100] containing protease inhibitors (Complete Protease Inhibitor Tablets, Boehringer Mannheim, Indianapolis, Ind.). […] The membrane blots were rinsed with PBS and blocked in Odyssey Blocking buffer for 1 h at RT. Blots were probed with antibodies against specific proteins in blocking buffer plus 0.1% Tween 20 and incubated for 2 h at room temperature. The membranes were washed and incubated with IRDye 680 or IRDye 800 secondary antibodies at RT for 1 h in blocking buffer plus 0.1% Tween 20. The membranes were developed with Odyssey Infrared Imaging System (LI-COR Biosciences, Lincoln, Nebr.).
Cell lysate (50 μg of total protein) or proteins immunoprecipitated with anti-phospho-Tyrosine antibody were loaded in SDS-PAGE gel. The antibody against specific protein was used in the western blot analysis.
Experiment [8] has as its system JIMT-1 breast cancer cells. In words: Cell growth inhibition (CellTiter-Glo), JIMT-1. The experiment is classed as cell-based. Conditions: Homo sapiens, JIMT-1, 72 h, 3 days.
Text: as §2

Experiment [9] deals with HS746T gastric carcinoma cells. Nature of the experiment: Cell growth inhibition (CellTiter-Glo), HS746T. Conditions: Homo sapiens, HS746T (HER3-low). The experiment is classed as cell-based.
Text: as §2

Broadly, the IC50 is the concentration at which inhibition is half-maximal. Turning to `C#Cc1cccc(Nc2ncnc3cc(OCCOC)c(OCCOC)cc23)c1` [Erlotinib, N-(3-ethynylphenyl)-6,7-bis{[2-(methyloxy)ethyl]oxy}-4-quinazolinamine], the IC50 in experiment [1] (lung_H441, +HGF (2 ng/mL)) was greater than 10 µM; in experiment [1] (lung_H441, −HGF), greater than 10 µM; in the experiment with lung_H1975 tumor cells (lung_H1975, +HGF (2 ng/mL)), greater than 10 µM; in the experiment with lung_H1975 tumor cells (lung_H1975, −HGF) it was greater than 10 µM; in experiment [2] (skin_A431, +HGF (2 ng/mL)), greater than 10 µM; in [2] (skin_A431, −HGF), 3.22 µM. In addition, the IC50 in experiment [3] (hn_Detroit562, +HGF (2 ng/mL)) was greater than 10 µM; in experiment [3] (hn_Detroit562, −HGF), greater than 10 µM; in [4] (colon_HT-29, +HGF (2 ng/mL)) it was greater than 10 µM; in experiment [4] (colon_HT-29, −HGF), greater than 10 µM; in [5] (gastric_SNU16, +HGF (2 ng/mL)), 9.37 µM; in experiment [5] (gastric_SNU16, −HGF), 6.46 µM.
The inhibition is the percentage by which the read-out fell short of the control. On to `CS(=O)(=O)CCNCc1ccc(-c2ccc3ncnc(Nc4ccc(OCc5cccc(F)c5)c(Cl)c4)c3c2)o1` [Lapatinib, N-(3-chloro-4-{[(3-fluorophenyl)methyl]oxy}phenyl)-6-[5-({[2-(methylsulfonyl)ethyl]amino}methyl)-2-furanyl]-4-quinazolinamine], for which the IC50 in [6] (breast_BT474-J4, +HGF (2 ng/mL)) was greater than 10 µM; in experiment [6] (breast_BT474-J4, −HGF), greater than 10 µM; in experiment [1] (lung_H441, +HGF (2 ng/mL)), greater than 10 µM; in [1] (lung_H441, −HGF), greater than 10 µM; in experiment [8] (breast_JimT1, +HGF (2 ng/mL)), greater than 10 µM; in experiment [8] (breast_JimT1, −HGF), greater than 10 µM. Moreover, the IC50 in [2] (skin_A431, +HGF (2 ng/mL)) is 4.6 µM; in experiment [2] (skin_A431, −HGF) it was 2.19 µM; in experiment [3] (hn_Detroit562, +HGF (2 ng/mL)) it was 4.64 µM; in experiment [3] (hn_Detroit562, −HGF), 4.02 µM; in experiment [9] (+HRG (10 ng/mL)), 7.37 µM; in experiment [9] (−HRG) it was 7.69 µM. Also, in experiment [6] (BT474-J4, lapatinib by itself at 1.0 μM (FIG. 5A)), the inhibition at 1 µM is less than 50%. In addition, the “phosphorylation of HER2” value in [7] is “inhibits”.
